Measurements reported in patent publication US6534480B2, “Compositions for increasing energy in vivo” (Bioenergy Inc., priority 1999, dated 2003).

Key:
adenine salvage pathway = experiment: Adenine salvage (formation of ATP) in perfused resting rat plantaris muscle, ribose dose response; assay type: in vivo, Sprague-Dawley rats; conditions: for salvage of adenine (formation of ATP), Observed: 30 minutes
Protocol: It has been theorized but not objectively shown that ribose, via PRPP synthesis, increases the rate of ATP synthesis via the nucleotide salvage pathway. […] The muscle was perfused with reconstituted blood medium at ˜40 ml/min, providing tissue perfusion of approximately 0.65 ml/min. Varying concentrations of D-ribose were added to the perfusate to bring the concentration to 0.156 mM, 0.5 mM, 1.58 mM, 5.0 mM and 15.0 mM. The muscle was perfused for 30 minutes. A minimum of two rats was used for analysis at each dose of ribose tested. Following perfusion, muscle sections were quickly dissected from the limb and freeze-clamped with aluminum tongs chilled in liquid nitrogen. Muscle sections were lyophilized and reconstituted in distilled water for subsequent-separation of adenine nucleotides by reverse-phase high pressure liquid chromatography. Results are expressed as salvage of adenine (i.e., formation of ATP) in nanomoles salvaged per gram wet weight of muscle per hour (nM/gm/hr).

[1] = Cycle sprint power output in healthy fit subjects (Ribose Athlete Study); assay type: in vivo, human; conditions: for Mean Power Per Kilogram, Average / Peak Power Per Kilogram, Average / Total Power Per Kilogram, Average: average of sessions 1-6
Protocol: Four healthy, fit subjects in the age range 24 to 26 years of age were tested. The group was selected to be homogeneous regarding fitness level, gender and mean age with no known metabolic, neuronal, endocrine or cardiopulmonary disorders. All were capable of or had experience with cycling. The study protocol included four phases: (1) an initial baseline phase consisting of no exercise session; (2) a loading phase including three days of administration of either D-ribose or placebo (glucose) three times per day; (3) a training phase of three days employing exercise sessions characterized by serial (N=6) bouts of short (10 second) high-intensity cycle sprints at 7% body mass resistance with 50 second rest periods between sprints twice per day (morning and afternoon), and (4) a recovery phase for a period of 48 hours after the final training session. FIG. 1 is a diagram of a single cycle sprint bout. Two subjects were randomly selected for inclusion into the placebo or ribose group. Ribose or glucose was administered orally in a 250 ml iso-osmotic solution containing 10.0 grams of either ribose or placebo three times per day for three days preceding training (loading phase) and for three days during training (training phase). One-half liter isotonic electrolyte solution was given immediately post exercise and again 30 minutes later to avoid dehydration.

[2] = Self administration of ribose, subject with low energy after systemic bacterial infection; assay type: in vivo, human
Excerpt: An example of a subject having no overt disease who benefitted from self-administered ribose is a person. They had adhered to a strict weekly exercise regimen most of their life until sustaining a systemic bacterial infection, which required admission to the intensive care unit for one month and rehabilitation for an additional month. Their cardiovascular and pulmonary systems were predominantly affected during and following their illness and function had not recovered to its previous levels, or to their satisfaction, after one year.
Following convalescence, they have attempted to resume an exercise regimen, which involves running on a treadmill four days a week and lifting weights for two days a week. The runs were restricted to short intervals. Following the daily exercises, they have continuously experienced fatigue to the point of exhaustion and has required frequent naps. The patient began self-administering oral D-ribose at two doses per day, 4-5 grams per dose. Within seven days, they testified that their “pep” and exercise tolerance increased. For the first time since their illness, they are able to run as long as 30 minutes on the treadmill. They still experience a Degree of fatigue, but has been able to discontinue the naps after exercise. They continue on the daily oral doses of ribose, along with their scheduled exercises and feels a continuing improvement in their energy level after four weeks of ribose administration.

[3] = cited from earlier work
[4] = ribose group mean, sprint session 1
[5] = ribose group mean, sprint session 2
[6] = ribose group mean, sprint session 3
[7] = ribose group mean, sprint session 4
[8] = ribose group mean, sprint session 5
[9] = ribose group mean, sprint session 6

O=C[C@H](O)[C@H](O)[C@H](O)CO [Ribose, D-ribose]
adenine salvage relative to zero mM ribose (adenine salvage pathway; 0.158 mM ribose): doubles
salvage of adenine, Saturation Kinetics with Base (adenine salvage pathway; 0.158 mM ribose): 85.82 nM/gm/hr
salvage of adenine (formation of ATP), Observed (adenine salvage pathway; 0.158 mM ribose in perfusate): 113.0 nM/gm/hr
salvage of adenine, Saturation Kinetics with Base (adenine salvage pathway; 0.500 mM ribose): 118.68 nM/gm/hr
salvage of adenine (formation of ATP), Observed (adenine salvage pathway; 0.500 mM ribose in perfusate): 110.0 nM/gm/hr
salvage of adenine, Saturation Kinetics with Base (adenine salvage pathway; 1.000 mM ribose): 154.12 nM/gm/hr
salvage of adenine, Saturation Kinetics with Base (adenine salvage pathway; 1.580 mM ribose): 183.51 nM/gm/hr
salvage of adenine (formation of ATP), Observed (adenine salvage pathway; 1.580 mM ribose in perfusate): 188.5 nM/gm/hr
salvage of adenine, Saturation Kinetics with Base (adenine salvage pathway; 2.000 mM ribose): 199.74 nM/gm/hr
salvage of adenine, Saturation Kinetics with Base (adenine salvage pathway; 2.500 mM ribose): 215.29 nM/gm/hr
salvage of adenine, Saturation Kinetics with Base (adenine salvage pathway; 3.000 mM ribose): 227.85 nM/gm/hr
salvage of adenine, Saturation Kinetics with Base (adenine salvage pathway; 5.000 mM ribose): 260.68 nM/gm/hr
salvage of adenine (formation of ATP), Observed (adenine salvage pathway; 5.000 mM ribose in perfusate): 250.0 nM/gm/hr
salvage of adenine (formation of ATP), Observed (adenine salvage pathway; 5.000 mM ribose in perfusate, listed as ribose): 250 nM/gm/hr
salvage of adenine, Saturation Kinetics with Base (adenine salvage pathway; 15.000 mM ribose): 310.37 nM/gm/hr
salvage of adenine (formation of ATP), Observed (adenine salvage pathway; 15.000 mM ribose in perfusate): 315.5 nM/gm/hr
Mean Power Per Kilogram, Average ([1]; ribose group mean): 8.2 Watts
Peak Power Per Kilogram, Average ([1]; ribose group mean): 9.6 Watts
Total Power Per Kilogram, Average ([1]; ribose group mean): 81.6
Peak Power Per Kilogram [1, 4]: 8.9 Watts
Total Power Per Kilogram [1, 4]: 79.3
Mean Power Per Kilogram ([1]; ribose group mean, sprint session 1, 10.0 grams oral three times per day): 7.8 Watts
Mean Power Per Kilogram [1, 5]: 8.4 Watts
Peak Power Per Kilogram [1, 5]: 9.7 Watts
Total Power Per Kilogram [1, 5]: 83.3
Mean Power Per Kilogram [1, 6]: 8.5 Watts
Peak Power Per Kilogram [1, 6]: 10.0 Watts
Total Power Per Kilogram [1, 6]: 84.2
Mean Power Per Kilogram [1, 7]: 8.3 Watts
Peak Power Per Kilogram [1, 7]: 9.9 Watts
Total Power Per Kilogram [1, 7]: 82.8
Mean Power Per Kilogram [1, 8]: 8.2 Watts
Peak Power Per Kilogram [1, 8]: 9.8 Watts
Total Power Per Kilogram [1, 8]: 81.8
Mean Power Per Kilogram [1, 9]: 7.8 Watts
Peak Power Per Kilogram [1, 9]: 9.3 Watts
Total Power Per Kilogram [1, 9]: 77.9
Mean Power Per Kilogram, average relative to placebo (100.0%) ([1]; ribose group vs placebo group): 109.0%
Peak Power Per Kilogram, average relative to placebo (100.0%) ([1]; ribose group vs placebo group): 109.9%
Total Power Per Kilogram, average relative to placebo (100.0%) ([1]; ribose group vs placebo group): 109.5%
increase in performance ([1]; ribose vs placebo, Tables II to IV): 9%
Mean Power Per Kilogram, Average ([1]; subject 2R): 7.5 Watts
Peak Power Per Kilogram, Average ([1]; subject 2R): 8.8 Watts
Total Power Per Kilogram, Average ([1]; subject 2R): 75.1
Mean Power Per Kilogram ([1]; subject 2R, sprint session 1): 6.9 Watts
Peak Power Per Kilogram ([1]; subject 2R, sprint session 1): 7.9 Watts
Total Power Per Kilogram ([1]; subject 2R, sprint session 1): 71.9
Mean Power Per Kilogram ([1]; subject 2R, sprint session 2): 7.5 Watts
Peak Power Per Kilogram ([1]; subject 2R, sprint session 2): 8.8 Watts
Total Power Per Kilogram ([1]; subject 2R, sprint session 2): 74.7
Mean Power Per Kilogram ([1]; subject 2R, sprint session 3): 7.8 Watts
Peak Power Per Kilogram ([1]; subject 2R, sprint session 3): 9.2 Watts
Total Power Per Kilogram ([1]; subject 2R, sprint session 3): 77.1
Mean Power Per Kilogram ([1]; subject 2R, sprint session 4): 7.6 Watts
Peak Power Per Kilogram ([1]; subject 2R, sprint session 4): 9.0 Watts
Total Power Per Kilogram ([1]; subject 2R, sprint session 4): 75.6
Mean Power Per Kilogram ([1]; subject 2R, sprint session 5): 7.9 Watts
Peak Power Per Kilogram ([1]; subject 2R, sprint session 5): 9.4 Watts
Total Power Per Kilogram ([1]; subject 2R, sprint session 5): 78.1
Mean Power Per Kilogram ([1]; subject 2R, sprint session 6): 7.4 Watts
Peak Power Per Kilogram ([1]; subject 2R, sprint session 6): 8.7 Watts
Total Power Per Kilogram ([1]; subject 2R, sprint session 6): 73.4
Mean Power Per Kilogram, Average ([1]; subject 3R): 8.8 Watts
Peak Power Per Kilogram, Average ([1]; subject 3R): 10.3 Watts
Total Power Per Kilogram, Average ([1]; subject 3R): 88.0
Mean Power Per Kilogram ([1]; subject 3R, sprint session 1): 8.7 Watts
Peak Power Per Kilogram ([1]; subject 3R, sprint session 1): 9.8 Watts
Total Power Per Kilogram ([1]; subject 3R, sprint session 1): 86.8
Mean Power Per Kilogram ([1]; subject 3R, sprint session 2): 9.2 Watts
Peak Power Per Kilogram ([1]; subject 3R, sprint session 2): 10.6 Watts
Total Power Per Kilogram ([1]; subject 3R, sprint session 2): 91.9
Mean Power Per Kilogram ([1]; subject 3R, sprint session 3): 9.1 Watts
Peak Power Per Kilogram ([1]; subject 3R, sprint session 3): 10.7 Watts
Total Power Per Kilogram ([1]; subject 3R, sprint session 3): 91.3
Mean Power Per Kilogram ([1]; subject 3R, sprint session 4): 9.0 Watts
Peak Power Per Kilogram ([1]; subject 3R, sprint session 4): 10.7 Watts
Total Power Per Kilogram ([1]; subject 3R, sprint session 4): 90.0
Mean Power Per Kilogram ([1]; subject 3R, sprint session 5): 8.5 Watts
Peak Power Per Kilogram ([1]; subject 3R, sprint session 5): 10.1 Watts
Total Power Per Kilogram ([1]; subject 3R, sprint session 5): 85.4
Mean Power Per Kilogram ([1]; subject 3R, sprint session 6): 8.2 Watts
Peak Power Per Kilogram ([1]; subject 3R, sprint session 6): 9.9 Watts
Total Power Per Kilogram ([1]; subject 3R, sprint session 6): 82.5
adverse effects ([2]; four weeks of oral ribose administration): no adverse effects
time able to run on the treadmill ([2]; oral D-ribose two doses per day, 4-5 grams per dose): ≤ 30 min
"pep" and exercise tolerance ([2]; within seven days of oral D-ribose, two doses per day, 4-5 grams per dose): increased
symptoms of MAD-deficient patients ([3]; MAD-deficient patients): relieved
effect in normal volunteers ([3]; normal volunteers): no beneficial effect
